Test results from patent publication US8629116B2, “Method for inducing a TRIF-bias” (priority 2008, dated 2014).

Assays:
[1] = test system: MonoMac6 (MM6) cells; assay: NFκB nuclear translocation in MonoMac6 cells (ImageStream); assay type: cell-based, human
Source text: MonoMac6 Cells in exponential growth are stimulated with increasing concentrations of AGP diluted in 2% glycerol vehicle for the indicated time points. Immediately fixed cells (in 2% paraformalin overnight) are stained with the primary antibodies, anti-NFκB(p65) (SantaCruz Biotechnology, SantaCruz, Calif.) and anti-IRF3 (BD Biosciences, San Jose, Calif.), in permeabilization buffer (PBS, 2% FBS, 0.1% TritonX) followed by secondary antibodies, anti-Rabbit FITC (Jackson Labs, Bar Harbor, Me.), anti-mouse PE (BD Biosciences, San Jose, Calif.). Similarity scores of signaling protein localization with the nuclear stain DRAQ5 (Alexis Biochemicals (San Diego, Calif.) are used for ImageStream analysis of Nuclear Translocation as previously described {George, 2006 32669/id}. A minimum of 3000 cells are collected and analyzed for each condition tested.
Interferon […] Factor-3 (IRF-3) is a transcription factor activated downstream of the TRIF-dependent TLR4 signaling pathway (Yamamoto et al. 640-43). IRF-3 phosphorylation leads to IRF-3 dimerization, nuclear translocation, and induction of transcription of Type I interferon (IFNβ) and interferon-inducible genes (Honda, Takaoka, and Taniguchi 349-60; Tailor, Tamura, and Ozato 134-40). The ImageStream is capable of measuring nuclear translocation of both NFκB and IRF-3 by quantification of co-localization between the labeled transcription factors and the nucleus of cells stained with a nucleus-specific dye ([…]) (Beum et al. 90-99; George et al. 117-29; Arechiga et al. 7800-04).
In order to compare signaling initiated by CRX-527 and CRX-547, the induction of nuclear translocation of NFκB and IRF-3 by CRX-527 and CRX-547 treatment is compared in the human monocytic cell line, MonoMac6 (MM6) using ImageStream analysis.
To determine whether CRX-547 is able to antagonize NFκB nuclear translocation in cells treated with constant CRX-527, MM6 cells are stimulated for 20 minutes, 35 minutes and 2 hrs with increasing doses of CRX-547 (FIG. 12). When AGPs are added at the same time, CRX-547 antagonized NFκB nuclear translocation induced by CRX-527 at the highest doses. When CRX-547 is constant and spiked with CRX-527 into the assay, CRX-527 stimulation is able to overcome the maximal effect of NFκB nuclear translocation with CRX-547 alone.

[2] = Induction of serum cytokines/chemokines in mice; assay type: in vivo, mouse; conditions: C57BL/6 mice, 2 or 6 hours post injection
Method: Female BALB/c or C57B1/6 mice are obtained from Charles River Laboratories, USA, and are 7 to 9 weeks of age when the experiments are initiated. Mice are injected intraperitoneally with 200 uL of agonist in vehicle (0.2% glycerol) or vehicle alone. Serum samples are drawn at 2 or 6 hours post-injection and are tested for induction of cytokines/chemokines by multiplex sandwich ELISA (Invitrogen) on the Luminex platform. All animals are used in accordance with guidelines established by the Public Health Service and the Institutional Animal Care and Use Committee at GlaxoSmithKline Biologicals, Hamilton, Mont.
To ensure that this response is not specific to BALB/c mice, a similar test of serum cytokine induction in C57BL/6 mice is carried out. (FIG. 16). The kinetics (induction at 2 or 6 hours post injection) and magnitude of cytokine induction are similar for CRX-527 and CRX-547 for both MyD88-dependent (TNFα, IL-10) and TRIP-dependent (RANTES, IP-10, MIG) cytokines/chemokines, although the relative induction by CRX-547 is slightly less for select cytokines than that seen in BALB/c (not shown). […]

[3] = test system: RAW264.7 (macrophage) cells; assay: TNFα and IP-10 production in RAW264.7 cells; assay type: cell-based, mouse
Source text: To better compare and confirm the similarity of potency between the L and D isomers in murine cells, RAW264.7 (macrophage) cells are stimulated over a wider dose range with CRX-527, CRX-547, compounds 1a and 1b and the supernatants assayed for MyD88 (TNFα) and TRIF-dependent (IP-10) production.
Since MyD88-dependent signaling after TLR4 stimulation should be earlier than TRIF dependent signaling, and because both MyD88 and TRIF can induce downstream TNFα production due to activation of the NFκB pathway, an earlier timepoint is tested for cytokine production after stimulation with the L and D isomers.

[4] = target: T1, muTLR4, muMD-2, and muCD14 (Mus musculus, UniProt Q9JHF9+Q9QUK6); assay: NFκB reporter activity in HEK293 cells transfected with muTLR4, muMD-2, muCD14; assay type: cell-based; conditions: HEK293 muTLR4/muMD-2/muCD14
T1 construct: expressed in transfected cells; host or cells: HEK293
T1 sequence (Q9QUK6 26-835): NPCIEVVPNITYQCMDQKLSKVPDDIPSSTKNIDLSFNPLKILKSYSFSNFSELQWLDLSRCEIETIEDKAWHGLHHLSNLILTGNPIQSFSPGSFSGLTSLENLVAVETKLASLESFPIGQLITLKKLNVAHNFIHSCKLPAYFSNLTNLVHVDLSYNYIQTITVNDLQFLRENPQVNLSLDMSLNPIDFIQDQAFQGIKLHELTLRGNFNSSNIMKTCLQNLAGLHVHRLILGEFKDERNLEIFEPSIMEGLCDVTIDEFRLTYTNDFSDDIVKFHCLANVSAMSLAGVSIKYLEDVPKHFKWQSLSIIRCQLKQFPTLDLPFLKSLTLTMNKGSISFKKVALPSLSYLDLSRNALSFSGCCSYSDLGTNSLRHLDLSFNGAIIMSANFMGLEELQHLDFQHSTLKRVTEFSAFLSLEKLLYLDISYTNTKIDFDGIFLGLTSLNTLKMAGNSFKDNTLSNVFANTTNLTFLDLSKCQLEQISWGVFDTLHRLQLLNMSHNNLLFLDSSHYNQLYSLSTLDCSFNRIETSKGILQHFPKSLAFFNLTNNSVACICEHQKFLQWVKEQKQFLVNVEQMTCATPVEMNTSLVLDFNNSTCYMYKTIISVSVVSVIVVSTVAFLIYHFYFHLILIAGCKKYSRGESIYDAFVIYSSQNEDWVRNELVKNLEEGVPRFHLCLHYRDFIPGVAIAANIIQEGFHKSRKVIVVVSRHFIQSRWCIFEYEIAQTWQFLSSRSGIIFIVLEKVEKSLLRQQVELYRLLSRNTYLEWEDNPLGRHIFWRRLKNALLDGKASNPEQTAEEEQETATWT
T1 sequence (Q9JHF9 19-160): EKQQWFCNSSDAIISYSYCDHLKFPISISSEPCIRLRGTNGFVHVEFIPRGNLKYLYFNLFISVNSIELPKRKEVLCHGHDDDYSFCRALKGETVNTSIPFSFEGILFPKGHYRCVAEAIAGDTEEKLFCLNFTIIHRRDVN

Row | SMILES | earliest NFκB nuclear translocation post-stimulation ([1]; MM6 cells) | NFκB nuclear translocation ([1]; MM6 cells, by thirty minutes) | kinetics and magnitude of serum cytokine induction (TNFα, IL-10, RANTES, IP-10, MIG) [2] | potency for IP-10 production ([3]; four hours of stimulation) | potency for TNFα production ([3]; four hours of stimulation) | potency for IP-10 production ([3]; wider dose range) | potency for TNFα production ([3]; wider dose range) | effect on NFκB nuclear translocation induced by CRX-527 ([1]; MM6, AGPs added at the same time, highest doses of CRX-547) | NFκB nuclear translocation, threshold never exceeded ([1]; MM6 cells, 5-120 minutes) | NFκB reporter activity [4]
1 | CCCCCCCCCCCC(CC(=O)NC(COC1OC(CO)C(OP(=O)(O)O)C(OC(=O)CC(CCCCCCCCCCC)OC(=O)CCCCCCCCC)C1NC(=O)CC(CCCCCCCCCCC)OC(=O)CCCCCCCCC)C(=O)O)OC(=O)CCCCCCCCC.CCN(CC)CC (stereo not shown) [CRX-527] | ≤ 5 min | ~100% | similar | slightly more potent | slightly more potent | more potent | more potent |  |  | 
2 | CCCCCCCCCCCC(CC(=O)NC(COC1OC(CO)C(OP(=O)(O)O)C(OC(=O)CC(CCCCCCCCCCC)OC(=O)CCCCCCCCC)C1NC(=O)CC(CCCCCCCCCCC)OC(=O)CCCCCCCCC)C(=O)O)OC(=O)CCCCCCCCC.CCN(CC)CC (stereo not shown) [CRX-547] |  |  | similar |  |  | less potent | less potent | antagonized | around 50% | more similar to CRX-527 and LPS
